Reference: patent publication US11725036B2, “Modified lipidated relaxin B chain peptides and their therapeutic use” (Sanofi, priority 2018, dated 2023)
Starred links: 1 amine or outer side, 2 acyl side, 3 side chain; linkers in the order of their positions; H or OH if unused. Non-standard residues stand in square brackets, D forms with d. Residues, ends and D or L forms follow the SMILES beside them. Groups on a side chain read outwards from the residue. *: point of attachment. X3 = CCCCCCCCCCCCCCCCCC(=O)N[C@@H](CCC(=O)N[C@@H](CCC(=O)N[C@@H](CCC(=O)NCCCOCCOCCOCCCNC(=O)CCC(=O)NCCCOCCOCCOCCCNC(=O)CCC(=O)NCCCOCCOCCOCCCN*)C(=O)O)C(=O)O)C(=O)O; X1 = CCCCCCCCCCCCCCCC(=O)N[C@@H](CCC(=O)N[C@@H](CCC(=O)N[C@@H](CCC(=O)NCCCOCCOCCOCCCNC(=O)CCC(=O)NCCCOCCOCCOCCCNC(=O)CCC(=O)NCCCOCCOCCOCCCN*)C(=O)O)C(=O)O)C(=O)O; Trp(5-Cl) = N[C@@H](Cc1c[nH]c2ccc(Cl)cc12)C(=O)O; Trp(5-F) = N[C@@H](Cc1c[nH]c2ccc(F)cc12)C(=O)O; Suc = O=C(CCC(=O)[*:2])[*:1]; hLys = NCCCCC[C@H](N)C(=O)O; Aib = CC(C)(N)C(=O)O

Target: T1, RXFP1 (Homo sapiens, UniProt Q9HBX9)
T1 construct: OVCAR5 cells expressing endogenous RXFP1; endogenous in cells; host or cells: OVCAR5
T1 sequence (Q9HBX9 1-757): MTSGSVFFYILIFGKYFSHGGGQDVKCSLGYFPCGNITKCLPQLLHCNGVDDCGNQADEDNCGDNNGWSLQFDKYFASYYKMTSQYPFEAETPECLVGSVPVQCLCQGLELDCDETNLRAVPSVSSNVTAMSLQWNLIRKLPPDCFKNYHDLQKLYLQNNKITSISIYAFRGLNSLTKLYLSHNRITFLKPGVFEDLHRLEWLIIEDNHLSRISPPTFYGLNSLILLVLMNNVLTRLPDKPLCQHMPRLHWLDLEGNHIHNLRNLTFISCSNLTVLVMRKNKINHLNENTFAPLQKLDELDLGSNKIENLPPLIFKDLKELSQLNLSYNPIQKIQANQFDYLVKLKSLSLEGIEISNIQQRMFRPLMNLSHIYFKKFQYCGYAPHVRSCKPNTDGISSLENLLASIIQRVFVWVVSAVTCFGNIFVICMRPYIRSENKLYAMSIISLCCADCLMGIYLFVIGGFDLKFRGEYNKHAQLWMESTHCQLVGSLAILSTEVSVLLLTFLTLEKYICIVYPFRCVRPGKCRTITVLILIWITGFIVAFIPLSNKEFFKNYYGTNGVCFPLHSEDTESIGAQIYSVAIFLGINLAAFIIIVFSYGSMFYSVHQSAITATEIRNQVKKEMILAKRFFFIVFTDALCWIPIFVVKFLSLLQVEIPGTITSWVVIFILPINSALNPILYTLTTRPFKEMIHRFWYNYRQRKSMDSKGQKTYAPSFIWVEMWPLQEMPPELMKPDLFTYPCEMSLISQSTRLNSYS
Assay: OVCAR5 cAMP assay (HTRF)
Assay type: cell-based
Settings: for EC50: OVCAR 5 cells expressing endogenous RXFP1, cAMP readout; for Emax: OVCAR 5 cells, maximal cAMP relative to H2-relaxin
Outline: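 Peptide agonism measured as intracellular cAMP (HTRF) after 30 min at 37° C in serum-free medium, following 40 min 1 mM IBMX preincubation of OVCAR5 cells. Nonlinear regression gave EC50; Emax % = 100 × compound maximal cAMP / H2-relaxin maximal cAMP.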

SMILES	EC50 [nM]	Emax [%]
CCCCCCCCCCCCCCCC(=O)N[C@@H](CCC(=O)N[C@@H](CCC(=O)N[C@@H](CCC(=O)NCCCOCCOCCOCCCNC(=O)CCC(=O)NCCCOCCOCCOCCCNC(=O)CCC(=O)NCCCOCCOCCOCCCNC(=O)CCC(=O)NCCCC[C@H](NC(=O)CNC(=O)[C@H](CCC(=O)O)NC(=O)C(C)(C)NC(=O)C(C)(C)NC(=O)[C@@H](NC(=O)[C@H](CCCCNC(C)=O)NC(=O)[C@H](C)NC(=O)[C@H](CCCNC(=N)N)NC(=O)[C@@H](NC(=O)[C@H](CCCNC(=N)N)NC(=O)[C@H](CCC(=O)O)NC(=O)[C@H](CCCNC(=N)N)NC(=O)CNC(=O)[C@H](CCC(=O)O)NC(=O)[C@H](CC(C)C)NC(C)=O)C(C)C)[C@@H](C)CC)C(=O)N[C@@H](CO)C(=O)N[C@H](C(=O)N[C@@H](Cc1c[nH]c2ccc(F)cc12)C(=O)N[C@@H](CO)C(=O)NC(C)(C)C(=O)N[C@@H](CCCNC(=N)N)C(=O)N[C@@H](CCCNC(=N)N)C(=O)N[C@@H](CCCCNC(C)=O)C(N)=O)[C@@H](C)O)C(=O)O)C(=O)O)C(=O)O [compound 92] (Ac-LEGRERVRAK(Ac)I[Aib][Aib]EGK([Suc-X1])ST[Trp(5-F)]S[Aib]RRK(Ac)-NH2)	0.1	99
CCCCCCCCCCCCCCCCCC(=O)N[C@@H](CCC(=O)N[C@@H](CCC(=O)N[C@@H](CCC(=O)NCCCOCCOCCOCCCNC(=O)CCC(=O)NCCCOCCOCCOCCCNC(=O)CCC(=O)NCCCOCCOCCOCCCNC(=O)CCC(=O)NCCCC[C@H](NC(=O)CNC(=O)[C@H](CCC(=O)O)NC(=O)C(C)(C)NC(=O)C(C)(C)NC(=O)[C@@H](NC(=O)[C@H](CCCCNC(C)=O)NC(=O)[C@H](C)NC(=O)[C@H](CCCNC(=N)N)NC(=O)[C@@H](NC(=O)[C@H](CCCCN)NC(=O)[C@H](CCC(=O)O)NC(=O)[C@H](CCCNC(=N)N)NC(=O)CNC(=O)[C@H](CCC(=O)O)NC(=O)[C@H](CC(C)C)NC(C)=O)C(C)C)[C@@H](C)CC)C(=O)N[C@@H](CO)C(=O)N[C@H](C(=O)N[C@@H](Cc1ccccc1)C(=O)N[C@@H](CO)C(=O)NC(C)(C)C(=O)N[C@@H](CCCNC(=N)N)C(=O)N[C@@H](CCCCN)C(=O)N[C@@H](CCCCNC(C)=O)C(N)=O)[C@@H](C)O)C(=O)O)C(=O)O)C(=O)O [compound 61] (Ac-LEGREKVRAK(Ac)I[Aib][Aib]EGK([Suc-X3])STFS[Aib]RKK(Ac)-NH2)	0.1	97
CCCCCCCCCCCCCCCC(=O)N[C@@H](CCC(=O)N[C@@H](CCC(=O)N[C@@H](CCC(=O)NCCCOCCOCCOCCCNC(=O)CCC(=O)NCCCOCCOCCOCCCNC(=O)CCC(=O)NCCCOCCOCCOCCCNC(=O)CCC(=O)NCCCC[C@H](NC(=O)CNC(=O)[C@H](CCC(=O)O)NC(=O)C(C)(C)NC(=O)C(C)(C)NC(=O)[C@@H](NC(=O)[C@H](CCCCNC(C)=O)NC(=O)[C@H](C)NC(=O)[C@H](CCCNC(=N)N)NC(=O)[C@@H](NC(=O)[C@H](CCCCN)NC(=O)[C@H](CCC(=O)O)NC(=O)[C@H](CCCNC(=N)N)NC(=O)CNC(=O)[C@H](CCC(=O)O)NC(=O)[C@H](CC(C)C)NC(C)=O)C(C)C)[C@@H](C)CC)C(=O)N[C@@H](CO)C(=O)N[C@H](C(=O)N[C@@H](Cc1c[nH]c2ccccc12)C(=O)N[C@@H](CO)C(=O)NC(C)(C)C(=O)N[C@@H](CCCNC(=N)N)C(=O)N[C@@H](CCCCNC(C)=O)C(=O)N[C@@H](CCCNC(=N)N)C(N)=O)[C@@H](C)O)C(=O)O)C(=O)O)C(=O)O [compound 69] (Ac-LEGREKVRAK(Ac)I[Aib][Aib]EGK([Suc-X1])STWS[Aib]RK(Ac)R-NH2)	0.78	97
CCCCCCCCCCCCCCCC(=O)N[C@@H](CCC(=O)N[C@@H](CCC(=O)N[C@@H](CCC(=O)NCCCOCCOCCOCCCNC(=O)CCC(=O)NCCCOCCOCCOCCCNC(=O)CCC(=O)NCCCOCCOCCOCCCNC(=O)CCC(=O)NCCCC[C@H](NC(=O)CNC(=O)[C@H](CCC(=O)O)NC(=O)C(C)(C)NC(=O)C(C)(C)NC(=O)[C@@H](NC(=O)[C@H](CCCCNC(C)=O)NC(=O)[C@H](C)NC(=O)[C@H](CCCNC(=N)N)NC(=O)[C@@H](NC(=O)[C@H](CCCCN)NC(=O)[C@H](CCC(=O)O)NC(=O)[C@H](CCCNC(=N)N)NC(=O)CNC(=O)[C@H](CCC(=O)O)NC(=O)[C@H](CC(C)C)NC(C)=O)C(C)C)[C@@H](C)CC)C(=O)N[C@@H](CO)C(=O)N[C@H](C(=O)N[C@@H](Cc1ccccc1)C(=O)N[C@@H](CO)C(=O)N[C@@H](CCCNC(=N)N)C(=O)N[C@@H](CCCNC(=N)N)C(=O)N[C@@H](C)C(=O)N[C@@H](CCCCNC(C)=O)C(N)=O)[C@@H](C)O)C(=O)O)C(=O)O)C(=O)O [compound 87] (Ac-LEGREKVRAK(Ac)I[Aib][Aib]EGK([Suc-X1])STFSRRAK(Ac)-NH2)	0.1	96
CCCCCCCCCCCCCCCC(=O)N[C@@H](CCC(=O)N[C@@H](CCC(=O)N[C@@H](CCC(=O)NCCCOCCOCCOCCCNC(=O)CCC(=O)NCCCOCCOCCOCCCNC(=O)CCC(=O)NCCCOCCOCCOCCCNC(=O)CCC(=O)NCCCC[C@H](NC(=O)CNC(=O)[C@H](CCC(=O)O)NC(=O)C(C)(C)NC(=O)C(C)(C)NC(=O)[C@@H](NC(=O)[C@H](CCCCNC(C)=O)NC(=O)[C@H](C)NC(=O)[C@H](CCCNC(=N)N)NC(=O)[C@@H](NC(=O)[C@H](CCCCN)NC(=O)[C@H](CCC(=O)O)NC(=O)[C@H](CCCNC(=N)N)NC(=O)CNC(=O)[C@H](CCC(=O)O)NC(=O)[C@H](CC(C)C)NC(C)=O)C(C)C)[C@@H](C)CC)C(=O)N[C@@H](CO)C(=O)N[C@H](C(=O)N[C@@H](Cc1c[nH]c2ccccc12)C(=O)N[C@@H](CO)C(=O)NC(C)(C)C(=O)N[C@@H](CCCNC(=N)N)C(=O)N[C@@H](CCCCNC(C)=O)C(=O)N[C@@H](CCCCN)C(N)=O)[C@@H](C)O)C(=O)O)C(=O)O)C(=O)O [compound 68] (Ac-LEGREKVRAK(Ac)I[Aib][Aib]EGK([Suc-X1])STWS[Aib]RK(Ac)K-NH2)	0.88	98
CCCCCCCCCCCCCCCC(=O)N[C@@H](CCC(=O)N[C@@H](CCC(=O)N[C@@H](CCC(=O)NCCCOCCOCCOCCCNC(=O)CCC(=O)NCCCOCCOCCOCCCNC(=O)CCC(=O)NCCCOCCOCCOCCCNC(=O)CCC(=O)NCCCC[C@H](NC(=O)CNC(=O)[C@H](CCC(=O)O)NC(=O)C(C)(C)NC(=O)C(C)(C)NC(=O)[C@@H](NC(=O)[C@H](CCCCNC(C)=O)NC(=O)[C@H](C)NC(=O)[C@H](CCCNC(=N)N)NC(=O)[C@@H](NC(=O)[C@H](CCCNC(=N)N)NC(=O)[C@H](CCC(=O)O)NC(=O)[C@H](CCCNC(=N)N)NC(=O)CNC(=O)[C@H](CCC(=O)O)NC(=O)[C@H](CC(C)C)NC(C)=O)C(C)C)[C@@H](C)CC)C(=O)N[C@@H](CO)C(=O)N[C@H](C(=O)N[C@@H](Cc1c[nH]c2ccc(Cl)cc12)C(=O)N[C@@H](CO)C(=O)NC(C)(C)C(=O)N[C@@H](CCCNC(=N)N)C(=O)N[C@@H](CCCNC(=N)N)C(=O)N[C@@H](CCCCNC(C)=O)C(N)=O)[C@@H](C)O)C(=O)O)C(=O)O)C(=O)O [compound 80] (Ac-LEGRERVRAK(Ac)I[Aib][Aib]EGK([Suc-X1])ST[Trp(5-Cl)]S[Aib]RRK(Ac)-NH2)	0.63	93
CCCCCCCCCCCCCCCC(=O)N[C@@H](CCC(=O)N[C@@H](CCC(=O)N[C@@H](CCC(=O)NCCCOCCOCCOCCCNC(=O)CCC(=O)NCCCOCCOCCOCCCNC(=O)CCC(=O)NCCCOCCOCCOCCCNC(=O)CCC(=O)NCCCC[C@H](NC(=O)CNC(=O)[C@H](CCC(=O)O)NC(=O)C(C)(C)NC(=O)C(C)(C)NC(=O)[C@@H](NC(=O)[C@H](CCCCNC(C)=O)NC(=O)[C@H](C)NC(=O)[C@H](CCCNC(=N)N)NC(=O)[C@@H](NC(=O)[C@H](CCCCN)NC(=O)[C@H](CCC(=O)O)NC(=O)[C@H](CCCNC(=N)N)NC(=O)CNC(=O)[C@H](CCC(=O)O)NC(=O)[C@H](CC(C)C)NC(C)=O)C(C)C)[C@@H](C)CC)C(=O)N[C@@H](CO)C(=O)N[C@H](C(=O)N[C@@H](Cc1ccccc1)C(=O)N[C@@H](CO)C(=O)N[C@@H](CCCCCN)C(=O)N[C@@H](CCCNC(=N)N)C(=O)N[C@@H](C)C(=O)N[C@@H](CCCCNC(C)=O)C(N)=O)[C@@H](C)O)C(=O)O)C(=O)O)C(=O)O [compound 88] (Ac-LEGREKVRAK(Ac)I[Aib][Aib]EGK([Suc-X1])STFS[hLys]RAK(Ac)-NH2)	0.17	96
